Data taken from patent US11976047B1, “4,5-bis(4-bromo-phenyl)-1-hexyl-2-(2- methoxyphenyl)-1H-imidazole as an antimicrobial compound” (KING FAISAL UNIVERSITY, priority 2023, dated 2024).

How the values were obtained:
Type in all cases: cell-based
Conditions in all cases: after 10, 20, 40 and 60 minutes at all dilutions 1:100, 1:200, 1:400, 1:800 (summary in words)
Pseudomonas aeruginosa = assay: Antimicrobial screening by agar dilution, Pseudomonas aeruginosa
Protocol: (§1) The antimicrobial properties of the 4,5-bis(4-bromo-phenyl)-1-hexyl-2-(2-methoxyphenyl)-1H-imidazole was studied by the method of agar dilution. Test solutions of each compound was prepared in concentration of 1% using dimethylformamide as a solvent then they are diluted in physiological solution to obtain the final experimental dilutions 1:100, 1:200, 1:400, 1:800. The effect of these substances are compared with furacillin in a controlled study. The testing microbes used were gram positive bacteria Staphylococcus aureus, gram negative bacteria Pseudomonas aeruginosa and Escherichia coli and Candida albicans fungi were taken. The experiments used for this survey were meat-pentonlu agar (EPA) for cultivation of bacteria and Saburo environment for fungi. Each experiment used 1 ml of test solution on each plate 500 min. Add 2 drops of emulsified with microbes feel. All experimental samples were taken from the agar after 10, 20, 40, 60 minutes in the environment on the basis of Patrk planted. Bacteria were cultivated at a temperature of 37° C. for 1 day and the mushroom was kept in a thermostat for 2 hours at a temperature of 28° C. in the. Then results were checked.

Staphylococcus aureus = assay: Antimicrobial screening by agar dilution, Staphylococcus aureus
Protocol: as §1

Candida albicans = assay: Antimicrobial (antifungal) screening by agar dilution, Candida albicans
Protocol: as §1

Escherichia coli = assay: Antimicrobial screening by agar dilution, Escherichia coli
Protocol: as §1

CCCCCCn1c(-c2ccccc2OC)nc(-c2ccc(Br)cc2)c1-c1ccc(Br)cc1 [4,5-bis(4-bromo-phenyl)-1-hexyl-2-(2-methoxyphenyl)-1H-imidazole]
highest inhibition activity: inhibition activity, Pseudomonas aeruginosa (Pseudomonas aeruginosa) | inhibition activity, Staphylococcus aureus (Staphylococcus aureus) | inhibition activity, Candida albicans (Candida albicans) | inhibition activity, Escherichia coli (Escherichia coli)
